US11291670B2, “Therapeutic approaches for treating Alzheimer disease and related disorders through a modulation of angiogenesis” (PHARNEXT, priority 2008, dated 2022)

B1: BDNF: BDNF (50 ng/ml), positive control for neuroprotection (protein, UniProt P23560 19-247, looked up)
Neurotrophic factor BDNF …: APMKEANIRGQGGLAYPGVRTHGTLESVNGPKAGSRGLTSLADTFEHVIEELLDEDQKVRPNEENNKDADLYTSRVMLSSQVPLEPPLLFLLEEYKNYLDAANMSMRVRRHSDPARRGELSVCDSISEWVTAADKKTAVDMSGGTVTVLEKVPVSKGQLKQYFYETKCNPMGYTKEGCRGIDKRHWNSQCRTTQSYVRALTMDSKKRIGWRFIRIDTSCVCTLTIKRGR

Legend:
Assay type in all cases: cell-based
[1] = test system: rat endothelial cerebral cells; assay: Aβ25-35 peptide toxicity, LDH release from rat endothelial cerebral cells; conditions: FIG. 1; for Protective effect against beta-amyloid peptide toxicity on LDH release (prevention of Aβ25-35 intoxication): Aβ25-35 30 μM, 3 days, drug added 1 hour before; for Spontaneous cell death in the culture medium: rat endothelial cerebral cells, LDH release
Description: Primo culture of rat endothelial cerebral cells (Vect-Horus SAS, Marseille) is cultivated on passage 0. At confluence, endothelial cells are dissociated with trypsin EDTA (Pan Biotech Ref: P10-023100). Cells are seeded at a density of 25 000 cells/well in 96 well-plates (wells are coated with 30 μl of type I rat collagen at 1.5 mg/ml, Vect-Horus SAS, Marseille) and are cultured in MCBD 131 medium (M−131-500, Invitrogen) supplemented with 1% of microvascular growth supplement (MVGS, S-005-25, Invitrogen). Cells are cultured at 37° C. in a humidified air (95%)/CO2(5%) atmosphere. Half of the medium is changed every other day with fresh medium. After 4 days, drugs are added to the cell culture medium, at different concentrations, solved in DMSO 0.1% or water.
Cells are then intoxicated with 30 μM of β-amyloid (25-35; Sigma) together with drugs in the same culture medium. Cells are then intoxicated during 3 days.
For each culture, after 3 days of intoxication, the supernatant is collected and analyzed with Cytotoxicity Detection Kit (LDH, Roche Applied Sciences). This colorimetric assay for the quantification of cell death is based on the measurement of lactate dehydrogenase (LDH) activity released from the cytosol of damaged cells into the supernatant. The optic density (DO) is assessed by spectrophotometer at 492 nm wavelength by a multiscan apparatus (Thermo, Ref Ascent).
Results presented in FIG. 1 are extracted from two independent cultures, 6 wells per condition. All values are expressed as mean±s.e.m. A bilateral Student's t test analysis is performed on raw data. Results are expressed in percentage of cell viability, compared to the control (vehicle).
Drugs are incubated with rat primary cerebral endothelial cells one hour before Aβ25-35 30 μM intoxication that lasts 3 days.
Three days after this incubation, LDH release in the culture medium is quantified, reflecting the level of cell death.

[2] = test system: Human Brain Microvascular Endothelial Cells (HBMEC); assay: human Aβ1-42 injury in HBMEC, total length of capillary network; conditions: for Effect on intoxication: total length of capillary network in beta-amyloid intoxicated HBMEC cultures: Aβ1-42 2.5 μM, combination versus each drug alone at the same concentrations, FIG. 4-6; for Prevention of Aβ1-42 intoxication in HBMEC (capillary network): drug pretreatment, FIG. 2B, 2C
Description: Human brain microvascular endothelial cerebral cells (HBMEC, ScienCell Ref: 1000, frozen at passage 10) were rapidly thawed in a waterbath at +37° C.
The control medium was prepared in the same conditions.
After 3 days, this human amyloid peptide was used on HBMEC at 2.5 μM diluted in control medium (optimal incubation time). The Aβ1-42 peptide was added 2 hours after HBMEC seeding on matrigel for 18 hours incubation.
Capillary Network Quantification
Per well, 2 pictures with 4× lens were taken using InCell Analyzer™ 1000 (GE Healthcare) in light transmission. All images were taken in the same conditions. Analysis of the angiogenesis networks was done using Developer software (GE Healthcare). The total length of capillary network was assessed.
All values are expressed as mean±s.e.mean of the 3 cultures (n=6 per condition). Statistic analyses were done on the different conditions performing an ANOVA followed by the Dunnett's test when it was allowed (Statview software version 5.0). The values (as %) inserted on the graphs show the amyloid toxicity evolution. Indeed, the amyloid toxicity was taken as the 100% and the test compound effect was calculated as a % of this amyloid toxicity.

[3] = test system: rat primary cortical cells; assay: human Aβ1-42 toxicity, LDH release in rat primary cortical neurons; conditions: Aβ1-42 10 μM 24 h, 1 hr pre-treatment; FIG. 3
Description: Primary rat cortical neurons are cultured as described previously.
Briefly, Aβ1-42 peptide was reconstituted in define culture medium at 40 μM (mother solution) and was slowly shaked at +37° C. for 3 days in dark. The control medium was prepared in the same conditions.
After 10 days of neuron culture, drug was solved in culture medium (+0.1% DMSO) and then pre-incubated with neurons for 1 hour before the Aβ1-42 application (in a final volume per culture well of 100 μl). One hour after drug incubation, 100 μl of Aβ1-42 peptide was added to a final concentration of 10 μM diluted in presence of drug, in order to avoid further drug dilutions. Cortical neurons were intoxicated for 24 hours. Three separate cultures were performed per condition, 6 wells per condition.
BDNF (50 ng/ml) and Estradiol-β (100 and 150 nM) were used as positive control and reference compounds respectively.
The following conditions were assessed: • 1 CONTROL PLAQUE: 12 wells/condition • Negative Control: medium alone+0.1% DMSO • Intoxication: amyloid-β1-42 (10 μM) for 24 h • Positive control: BDNF (50 ng/ml) 1 hr followed by amyloid-β1-42 (10 μM) for 24 h • Reference compound: Estradiol (150 nM) 1 hr followed by amyloid-β1-42 (10 μM) for 24 h. • DRUG PLATE: 6 wells/condition • Negative Control: medium alone+0.1% DMSO • Intoxication: amyloid-β1-42 (10 μM) for 24 h • Drug 1: Drug 1-1 hr followed by amyloid-β1-42(10 μM) for 24 h • Drug 2: Drug 2-1 hr followed by amyloid-β1-42(10 μM) for 24 h Lactate Dehydrogenase (LDH) Activity Assay
This colorimetric assay for the quantification of cell toxicity is based on the measurement of lactate dehydrogenase (LDH) activity released from the cytosol of dying cells into the supernatant.
All values are expressed as mean±s.e.mean of the 3 cultures (n=6 per condition). Statistic analyses were done on the different conditions (ANOVA followed by the Dunnett's test when it was allowed, Statviewi software version 5.0).

Row | Molecule | Protective effect against beta-amyloid peptide toxicity on LDH release (prevention of Aβ25-35 intoxication) [1] | Effect on intoxication: total length of capillary network in beta-amyloid intoxicated HBMEC cultures [2] | Prevention of Aβ1-42 intoxication in HBMEC (capillary network) [2] | Change of LDH release (Aβ1-42 amyloid injury) in rat primary cortical cells [3] | Spontaneous cell death in the culture medium [1]
1 | Cc1noc(NS(=O)(=O)c2ccc(N)cc2)c1C [Sulfisoxazole] | significantly prevented | no significant effect | – | – | –
2 | NCC(CC(=O)O)c1ccc(Cl)cc1 (racemic) [Baclofen] | – | no significant effect | significantly prevented | −86% | –
3 | NCC(CC(=O)O)c1ccc(Cl)cc1 (stereo not drawn) [Baclofen (−), Baclofen] | significantly prevented | – | – | – | –
4 | C[C@@H]1CC(=O)NN=C1c1ccc(NN=C(C#N)C#N)cc1 [Levosimendan] | – | no significant effect | – | – | –
5 | Cc1oncc1C(=O)Nc1ccc(C(F)(F)F)cc1 [Leflunomide] | significantly prevented | – | – | −62% | decrease spontaneous cell death
6 | CN(C/C=C/C#CC(C)(C)C)Cc1cccc2ccccc12 [Terbinafine] | significantly prevented | no significant effect | significantly prevented | – | decrease spontaneous cell death
7 | B1 | – | – | – | −95% | –
